Among the test systems are 786-0 renal; CAKI-1 renal; CCRF-CEM leukemia; RXF 393 renal; SF-539 CNS; SN12C renal; SNB-19 CNS; SW-620 colon; HOP-62 NSCLC.
What all share (assay): NCI tumour cell line growth inhibition, 48 h

SMILES strings stand for the structures.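 Values below derive from 48-hour exposures of cells grown in 96-well plates, with endpoints linearly interpolated between the two concentrations bracketing the appropriate inhibition level. GI50 is the concentration that inhibits growth by half. Definition used: TGI = concentration required for complete inhibition of growth.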

Turning to `Nc1ccccc1S(=O)(=O)N(CC(=O)O)c1ccccc1`, the TGI with 786-0 renal, in the assay with CAKI-1 renal, with CCRF-CEM leukemia, in the assay on RXF 393 renal, in the assay with SF-539 CNS and in the assay with SN12C renal was above 100 µM each time. Further, the TGI in the assay with SNB-19 CNS and in the assay with SW-620 colon was above 100 µM in each case.

Turning to `CCC[CH2][Sn]([CH2]CCC)([S]c1cccc2cccnc12)[S]c1cccc2cccnc12`, the GI50 with 786-0 renal was 0.227 µM; with CAKI-1 renal it was 0.123 µM; in the assay with CCRF-CEM leukemia, 0.035 µM; in the assay with HOP-62 NSCLC, 0.355 µM; in the assay with SF-539 CNS it was 0.234 µM; in the assay on SN12C renal it was 0.24 µM. In addition, the results for the GI50 in the assay with SNB-19 CNS and in the assay with SW-620 colon were 0.373 µM and 0.132 µM, respectively. The TGI in the assay on 786-0 renal stood at 0.56 µM; in the assay on CAKI-1 renal, 0.342 µM; with CCRF-CEM leukemia it was 0.285 µM; with HOP-62 NSCLC, 2.79 µM; in the assay on SF-539 CNS it was 0.617 µM; with SN12C renal, 0.822 µM. Moreover, the TGI in the assay with SNB-19 CNS was 1.39 µM; with SW-620 colon it was 0.379 µM.

Consider `C1=C2/CC[C@H](Sc3ccccc3)C2C2(CCCCC/1)OCCO2` (stereo partly drawn), for which the TGI with 786-0 renal was above 100 µM; in the assay with CCRF-CEM leukemia, above 100 µM; with HOP-62 NSCLC, 58.2 µM; with RXF 393 renal, 43.4 µM; with SF-539 CNS, above 100 µM; with SN12C renal, above 100 µM. Also, the TGI in the assay with SNB-19 CNS and in the assay on SW-620 colon was above 100 µM throughout.

Consider `O=C(O)CCNCCCNCCC(=O)O`, for which the TGI in the assay with 786-0 renal, in the assay with CAKI-1 renal, in the assay with CCRF-CEM leukemia, in the assay on HOP-62 NSCLC, in the assay with RXF 393 renal and in the assay on SF-539 CNS was above 100 µM in each case. Further, the TGI with SN12C renal, with SNB-19 CNS and in the assay with SW-620 colon was above 100 µM throughout.

With `Cc1c(C(=O)C/C(=N/NC(=O)c2ccccc2O)C(=O)Nc2ccccc2C(C)C)[n+](=O)c2ccccc2n1[O-]`, the TGI with 786-0 renal was above 100 µM; in the assay with CAKI-1 renal, above 100 µM; with CCRF-CEM leukemia it was 28.8 µM; in the assay with HOP-62 NSCLC, above 100 µM; in the assay on RXF 393 renal, above 100 µM; in the assay on SF-539 CNS, above 100 µM. Also, the TGI in the assay with SN12C renal, in the assay with SNB-19 CNS and with SW-620 colon was above 100 µM throughout.

As to `COC(=O)/C(C#N)=C1\NC(=O)c2ccccc21`, the TGI in the assay with 786-0 renal, in the assay on CCRF-CEM leukemia, with HOP-62 NSCLC, in the assay on RXF 393 renal, with SF-539 CNS and in the assay with SN12C renal was above 100 µM throughout. The TGI in the assay on SNB-19 CNS and with SW-620 colon was above 100 µM throughout.

For `CNC(=S)OCCC(C)CCCC(C)C` (stereo not drawn), the TGI in the assay on 786-0 renal worked out at 30.9 µM; with CAKI-1 renal, 31.7 µM; in the assay with CCRF-CEM leukemia, 40.7 µM; in the assay on HOP-62 NSCLC, 34.1 µM; in the assay on RXF 393 renal, 30.3 µM; with SF-539 CNS, 30.6 µM. In addition, the results for the TGI in the assay with SN12C renal, in the assay on SNB-19 CNS and with SW-620 colon were 30.3 µM, 33.4 µM and 30.7 µM, respectively.

As for `CCCC1C(=O)CCc2c(OC)ccc(OC)c21` (stereo not drawn), the TGI in the assay with 786-0 renal, in the assay with CAKI-1 renal, in the assay on CCRF-CEM leukemia, in the assay on HOP-62 NSCLC, in the assay on RXF 393 renal and with SF-539 CNS was above 100 µM in each case. Besides, the TGI in the assay on SN12C renal, in the assay with SNB-19 CNS and with SW-620 colon was above 100 µM each time.

For `COC(=O)C1(C(C)C)CCc2c(OC)ccc(OC)c2C1=O` (stereo not drawn), the TGI in the assay with 786-0 renal, with CAKI-1 renal, with CCRF-CEM leukemia, in the assay with HOP-62 NSCLC, in the assay on SF-539 CNS and with SN12C renal was above 100 µM each time. Further, the TGI with SNB-19 CNS and with SW-620 colon was above 100 µM each time.

Take `Cc1cc(N(CCC#N)CCC#N)ccc1N=Nc1ccc(S(N)(=O)=O)cc1`: the TGI in the assay with 786-0 renal, with CAKI-1 renal, with CCRF-CEM leukemia, in the assay on HOP-62 NSCLC, in the assay on RXF 393 renal and with SF-539 CNS was above 100 µM throughout. In addition, the TGI with SN12C renal, in the assay with SNB-19 CNS and in the assay with SW-620 colon was above 100 µM in each case.

Regarding `CCOC(=O)C(C)(C)Oc1ccc2c(-c3ccccc3)cc(=O)oc2c1`, the TGI with 786-0 renal is above 100 µM; in the assay with CCRF-CEM leukemia, 63.5 µM; with HOP-62 NSCLC it was 63.7 µM; in the assay on SF-539 CNS, 86.5 µM; in the assay with SN12C renal, above 100 µM; in the assay on SNB-19 CNS, above 100 µM. The molecule further displayed a TGI in the assay with SW-620 colon above 100 µM.

Take `CCCCCCCCCCCC(=O)OCCOCCOCCOCCOCCOCc1ccccc1`: the TGI in the assay on 786-0 renal, in the assay with CAKI-1 renal, in the assay on CCRF-CEM leukemia, in the assay on HOP-62 NSCLC, with RXF 393 renal and in the assay on SN12C renal was above 100 µM throughout. Further, the TGI in the assay on SNB-19 CNS and in the assay on SW-620 colon was above 100 µM in each case.

For `O=C(CCc1nc(=S)[nH][nH]1)Nc1ccc(Cl)c(Cl)c1`, the TGI in the assay with 786-0 renal, in the assay on CAKI-1 renal, with CCRF-CEM leukemia, with HOP-62 NSCLC, with SF-539 CNS and with SN12C renal was above 100 µM each time. For the same molecule, the TGI with SNB-19 CNS and in the assay with SW-620 colon was above 100 µM in each case.

Turning to `CN(C)C(=S)N=C(Nc1ccccc1)Nc1ccccc1`, the TGI in the assay with 786-0 renal, in the assay with CAKI-1 renal, with CCRF-CEM leukemia, in the assay with HOP-62 NSCLC, in the assay on RXF 393 renal and in the assay with SF-539 CNS was above 100 µM throughout. Also, the TGI in the assay on SN12C renal, in the assay with SNB-19 CNS and in the assay on SW-620 colon was above 100 µM throughout.

With `Cc1cc(NS(=O)(=O)c2ccc(Nc3c4ccccc4nc4c(C(=O)N5CCN(CCOS(C)(=O)=O)CC5)cccc34)cc2)no1`, the TGI in the assay on 786-0 renal, in the assay on CAKI-1 renal, in the assay with CCRF-CEM leukemia, in the assay with HOP-62 NSCLC, in the assay with RXF 393 renal and with SF-539 CNS was above 100 µM in each case. Also, the TGI in the assay on SN12C renal and with SNB-19 CNS was above 100 µM in each case.
